What was measured:
[1] = system: hair growth on backs of male adrenalectomized Sprague-Dawley rats; assay: Reduction in hair growth in male adrenalectomized rats, topical (Table VII); type: in vivo; conditions: 0.1% solution topical
Text: Hair was clipped from the backs of male Sprague-Dawley rats, having a mean body weight of 300 g., three weeks after adrenalectomy. The clipped area (4 cm.×4 cm.) was medicated with approximately 500 microliters of 0.1% solution of the compound of Formula I, or hydrocortisone or 500 microliters of ethanol alone for a two-week pretreatment period. The clipped area was then depilated and the medication with either solution or ethanol alone was continued for 4 weeks. The density of hair growth was scored visually at weekly intervals and at termination of the experiment on a scale of 0 to 4 (0, no hair growth; 4, complete hair regrowth). Skinfold thickness was also measured using a micrometer at the end of the experiment, which was conducted blind.

[2] = system: castrated immature male Syrian golden hamsters; assay: Systemic antiandrogenic and glucocorticoid activity, subcutaneous, with testosterone propionate (Table IV); type: in vivo; conditions: mean, n=8
Description: A solution of the compound of Formula I in cottonseed oil was administered subcutaneously at 1 ml./kg. to castrated immature male Syrian golden hamsters having a mean initial body weight of 79 g. for 14 consecutive days concurrently with testosterone propionate. On the day following the last medication the hamsters were killed, the flank organ parameters were determined and the weights of seminal vesicles, adrenals and thymus glands were obtained.

[3] = system: androgen-stimulated flank organ; assay: Related experiment: androgen-stimulated flank organ in mature female and castrated immature male hamsters; type: in vivo; conditions: 5 to 25 micrograms per flank organ
Text: As shown by Table I the diameters and the wet weights of the flank organs were reduced at a dose of 5 micrograms per flank organ per day.

[4] = system: supracaudal glands of mature male guinea pigs; assay: Topical study on supracaudal glands of guinea pigs; type: in vivo; conditions: 21 days
Description: The supracaudal glands of mature male guinea pigs having a mean initial body weight of 431 g. (8 guinea pigs per group) were medicated topically with a solution of the compound of Formula I (400 micrograms) in ethanol (10 microliters). Guinea pigs treated with ethanol served as controls. After 21 days of treatment the guinea pigs were killed and the areas of the supracaudal glands (pi×long radius×short radius) were measured in situ with calipers. The weights of seminal vesicles, adrenals and thymus glands were also measured.

[5] = system: male hamster flank organ hair; assay: Rate of flank organ hair growth by 35S-cystine pulse labelling (Table V); type: in vivo, Syrian golden hamsters; conditions: right flank organ, 5 microliters 0.1% solution daily for 14 days; mean ± SE, n=8
Description: In a second test all hair was clipped from the flank organs of 8 male Syrian golden hamsters having a mean body weight of 116 g. on the first day of the study. The hamsters were medicated daily with 5 microliters of ethanol on the left flank organ and 5 microliters of a 0.1% solution of the compound of Formula I in ethanol on the right flank organ for 14 consecutive days. On days 4, 8 and 12 each hamster was injected subcutaneously with 30 microcuries of ^35 S-cystine (0.72 nmole) dissolved in ethanol-saline (0.1 ml., 1:9, v/v). On day 15 several hairs were plucked from each flank organ. The hairs were exposed to X-ray film for 4 weeks. The distances between the radioactive sites and the hair resulting from the three pulses of ^35 S-cystine were measured and the daily rate of hair-growth was determined. As shown by Table V the rate of hair growth was reduced after 12 days of treatment.

[6] = system: flank organ of mature male Syrian golden hamsters; assay: Topical comparison in mature male hamsters, right flank organ treated, left flank organ vehicle (Tables II, III); type: in vivo; conditions: for Flank organ Diameter, RFO / Flank organ Weight, RFO / Flank organ Development, RFO (median score): treated right flank organ; for Flank organ Diameter, RFO / Flank organ Weight, RFO: mean; for Flank organ Diameter, RFO / Flank organ Weight, RFO / Flank organ Development, RFO (median score) / Flank Organ (Mean Score) Area / Flank Organ (Mean Score) Elevation / Flank Organ (Mean Score) Hair Growth / Flank Organ (Mean Score) Hair Pigmentation / Flank Organ (Mean Score) Skin Pigmentation: n=7; for Flank organ Development, RFO (median score): scale 0 to 4 (0 barely visible, 4 as in mature male); for Flank Organ (Mean Score) Area / Flank Organ (Mean Score) Elevation / Flank Organ (Mean Score) Hair Growth / Flank Organ (Mean Score) Hair Pigmentation / Flank Organ (Mean Score) Skin Pigmentation: RFO, scale 0 to 4
Text: Each flank organ of mature male Syrian golden hamsters having a mean initial body weight of 105 g. was medicated topically with the compound of Formula I dissolved in ethanol (5 microliters) for twenty-one days. Flank organ hair was clipped three times per week to facilitate application. On the day following the last medication the hamsters were killed with an overdose of sodium pentobarbital. The flank organ parameters and the weights of seminal vesicles, adrenals and thymus glands were determined. Flank organ diameter was measured parallel to the breadth of the hamster with vernier calipers. Wet weights were obtained on flank organs excised around the periphery of the pigmented area. The topical activity of the compound of Formula I was also compared with that of 17β-hydroxy-17α-propylandrost-4-en-3-one, an antiandrogen, and hydrocortisone. In this experiment the right flank organ was treated with the test compound while vehicle-treated left flank organ served as control. […] In addition, the individual characteristics of the flank organ, elevation (thickness relative to adjacent skin), area, hair pigment, skin pigment and hair growth were all scored separately on a scale of 0 to 4.

[7] = after depilation, median score, scale 0 to 4, n=12
[8] = 2.5 mg/kg/day sc for 14 days with testosterone propionate 0.4 mg/kg/day
[9] = 5 mg/kg/day sc for 14 days with testosterone propionate 0.4 mg/kg/day

## CC#C[C@]1(O)CC[C@H]2[C@@H]3C[C@H](C)C4=Cc5[nH]ncc5C[C@]4(C)[C@H]3CC[C@@]21C [Compound of Formula I, 17β-Hydroxy-6α-methyl-17α-propynyl-4-androsteno[3,2-c]-pyrazole]
[1]; [7]
  Hair Growth Score, Treatment week 1: 0
  Hair Growth Score, Treatment week 2: 0
  Hair Growth Score, Treatment week 3: .5
  Hair Growth Score, Treatment week 4: 1
[1]; mean, n=12, vehicle 2.51
  Skinfold Thickness, Treatment week 4: 1.82 mm
[1]; median score, scale 0 to 4 (0 no hair growth, 4 complete regrowth), n=12
  Hair Growth Score, Pretreatment week 1: 1
[1]; median score, scale 0 to 4, n=12
  Hair Growth Score, Pretreatment week 2: 2.5
[1]; p<0.02
  Skin thickness compared with hydrocortisone-treated rats: thinner
[2]; [8]
  Final Body Weight: 99
  Flank Organ Diameter: 4.0 mm
  Flank Organ Wet Weight: 19.5 mg
  Organ Weights: Adrenals: 12.7 mg
  Organ Weights: Seminal Vesicles: 135 mg
  Organ Weights: Thymus: 28 mg
[2]; [9]
  Final Body Weight: 93
  Flank Organ Diameter: 3.6 mm
  Flank Organ Wet Weight: 15.0 mg
  Organ Weights: Adrenals: 12.3 mg
  Organ Weights: Seminal Vesicles: 107 mg
  Organ Weights: Thymus: 14 mg
[3]
  Inhibition of androgen-stimulated flank organ parameters: effective inhibitor of androgen-stimulated flank organ parameters
  Systemic effects: without any systemic effects
[4]; 400 micrograms in 10 microliters ethanol topical, control 104±7, p<0.01
  Average area of the supracaudal glands: 72±6 sq. mm.
[4]; 400 micrograms topical, versus control group
  Changes in weights of seminal vesicles, adrenals or thymus glands: No changes
[5]
  Rate of Hair Growth, First Interval (Day 4-8): .504 ± .014 mm/day
  Rate of Hair Growth, Second Interval (Day 9-12): .566 ± .014 mm/day
[6]; 5 μg/RFO for 21 days
  Flank organ Diameter, RFO: 5.2 mm
  Flank organ Weight, RFO: 35.9 mg
  Flank organ Development, RFO (median score): 3
[6]; 50 μg/RFO for 21 days
  Flank organ Diameter, RFO: 5.0 mm
  Flank organ Weight, RFO: 33.2 mg
  Flank organ Development, RFO (median score): 3
[6]; 5 and 50 μg/RFO topical for 21 days
  Dose response of flank organ inhibition: flat dose response curve
[6]; 5 μg/flank organ for 21 days
  Flank Organ (Mean Score) Area: 3.3
  Flank Organ (Mean Score) Elevation: 3.1
  Flank Organ (Mean Score) Hair Growth: 1.4
  Flank Organ (Mean Score) Hair Pigmentation: 3.6
  Flank Organ (Mean Score) Skin Pigmentation: 3.3
[6]; 50 μg/flank organ for 21 days
  Flank Organ (Mean Score) Area: 3.0
  Flank Organ (Mean Score) Elevation: 2.6
  Flank Organ (Mean Score) Hair Growth: 0
  Flank Organ (Mean Score) Hair Pigmentation: 3.0
  Flank Organ (Mean Score) Skin Pigmentation: 3.1

From US4269831A, “Topical dermatological method of use of an androstenopyrazole” (priority 1979, dated 1981)
